Test results: patent US12258339B2, “Macrocyclic complexes of alpha-emitting radionuclides and their use in targeted radiotherapy of cancer” (Cornell University, priority 2018, dated 2025)

What was measured:
[1] = Kinetic inertness of [^225Ac(macropa)]^+: challenge with 50-fold excess La^3+; type: physicochemical; details: 50-fold excess of La^3+, macropa 0.59 μM, RT, over 7 days
Procedure: General. Stock solutions of La(NO3)3 (0.001 M or 0.1 M) were prepared in H2O. To the radiolabeled samples containing macropa (10 μL of 10^−5 M stock; 1.0×10^−10 moles) or DOTA (10 μL of 10^−3 M stock; 1.0×10^−8 moles) and ^225Ac (10 μL, 26 kBq) in NH4OAc buffer (pH 6, 0.15 M, 150 μL), a 50-fold mole excess of La^3+ was added (5 μL, of 0.001 M or 0.1 M stock were added to solutions containing macropa and DOTA, respectively). The solutions were kept at room temperature and analyzed by iTLC at several time points over the course of 8 days. The iTLC plates were developed using citric acid (0.05 M, pH 5) as the eluent. Under these conditions, [^225Ac(macropa)]^+ and [^225Ac(DOTA)]^− remained at the baseline (RF=0) and any unchelated ^225Ac (^225Ac-citrate) migrated with the solvent front (RF=1). Percent of complex remaining intact was calculated by integrating area under the peaks on the radiochromatogram and dividing the counts associated with the ^225Ac-complex (RF=0) by the total counts integrated along the length of the iTLC plate.
(§1) The long half-life of ^225Ac necessitates its stable complex retention in vivo to avoid off-target damage to normal tissues arising from the release of free ^225Ac^3+. Furthermore, the stability of ^225Ac complexes against transmetalation and transchelation needs to be high. […]

[2] = Stability of [^225Ac(macropa)]^+ in human serum; type: in vitro ADME; details: radio-TLC
Procedure: […]. [^225Ac(macropa)]^+ and [^225Ac(DOTA)]^− were prepared using 10^−5 M and 10^−3 M stock solutions (10 μL) of macropa and DOTA, respectively, to give final ligand concentrations of 5.9×10^−7 M (macropa) and 5.9×10^−5 M (DOTA). After confirming a radiochemical yield of >90% by TLC using 0.4 M sodium citrate (pH 4) containing 10% MeOH as the mobile phase, 160 μL of human serum (an equal volume based on labeling reaction volume) were added to each radiolabeled solution. A control solution was also prepared in which water was substituted for ligand. The solutions were monitored over the course of 8 days by iTLC. The plates were developed with EDTA (50 mM, pH 5) as the eluent. Under these conditions, [^225Ac(macropa)]^+ and [^225Ac(DOTA)]^− complexes remained at the baseline (RF=0) and any ^225Ac (^225Ac-EDTA) that had been transchelated by serum migrated with the solvent front (RF=1). Percent of complex remaining intact was calculated.
as §1, with “high. To determine the kinetic inertness, [^225Ac(macropa)]^+ was challenged with La^3+ because of the established high affinity of macropa for this metal ion.” for “high.”

In the case of `O=C([O-])c1cccc(CN2CCOCCOCCN(Cc3cccc(C(=O)[O-])n3)CCOCCOCC2)n1.[225Ac+3]` [[^225Ac(macropa)]^+], the “^225Ac complex remained intact by radio-TLC” value [1] is reported as 98% and the “time ^225Ac^3+ remains complexed in human serum” value [2] is reported as “at least 8 days”.
